Measurements taken from patent US7038084B2, “Succinoylamino hydroxyethylamino sulfonamides useful as retroviral protease inhibitors” (G.D. Searle & Co., priority 1992, dated 2006).
Read-outs that look alike come from different tables or passages of the source.

Columns and labels:
HIV protease = molecular target: T1, HIV protease (Human immunodeficiency virus type 1 group M subtype B, UniProt P04585); assay: HIV protease enzyme assay (fluorogenic substrate 2-aminobenzoyl-Ile-Nle-Phe(p-NO2)-Gln-ArgNH2); format: biochemical
T1 construct: HIV protease is diluted in the assay buffer to a final enzyme concentration of 12.3 nanomolar, based on a molecular weight of 10,780
Excerpt: The compounds of the present invention are effective HIV protease inhibitors. Utilizing an enzyme assay as described below, the compounds set forth in the examples herein disclosed inhibited the HIV enzyme. The preferred compounds of the present invention and their calculated IC50 (inhibiting concentration 50%, i.e., the concentration at which the inhibitor compound reduces enzyme activity by 50%) values are shown in Table 8. The enzyme method is described below. The substrate is 2-aminobenzoyl-Ile-Nle-Phe(p-NO2)-Gln-ArgNH2. The positive control is MVT-101 (Miller, M. et al, Science, 246, 1149 (1989)] The assay conditions are as follows:
The above described substrate is dissolved in DMSO, then diluted 10 fold in assay buffer. Final substrate concentration in the assay is 80 μM.
HIV protease is diluted in the assay buffer to a final enzyme concentration of 12.3 nanomolar, based on a molecular weight of 10,780.
The final concentration of DMSO is 14% and the final concentration of glycerol is 18%. The test compound is dissolved in DMSO and diluted in DMSO to 10× the test concentration; 10 μl of the enzyme preparation is added, the materials mixed and then the mixture is incubated at ambient temperature for 15 minutes. The enzyme reaction is initiated by the addition of 40 μl of substrate. The increase in fluorescence is monitored at 4 time points (0, 8, 16 and 24 minutes) at ambient temperature. Each assay is carried out in duplicate wells.

HIV-1 = assay: HIV inhibition assay of acutely infected CEM cells (MTT); format: cell-based
Method: (§1) The HIV inhibition assay method of acutely infected cells is an automated tetrazolium based calorimetric assay essentially that reported by Pauses et al, J. Virol. Methods 20, 309–321 (1988). Assays were performed in 96-well tissue culture plates. CEM cells, a CD4^+ cell line, were grown in RPMI-1640 medium (Gibco) supplemented with a 10% fetal calf serum and were then treated with polybrene (2 μg/ml). An 80 μl volume of medium containing 1×10^4 cells was dispensed into each well of the tissue culture plate. To each well was added a 100 μl volume of test compound dissolved in tissue culture medium (or medium without test compound as a is control) to achieve the desired final concentration and the cells were incubated at 37° C. for 1 hour. A frozen culture of HIV-1 was diluted in culture medium to a concentration of 5×10^4 TCID50 per ml (TCID50=the dose of virus that infects 50% of cells in tissue culture), and a 20 μL volume of the virus sample (containing 1000 TCID50 of virus) was added to wells containing test compound and to wells containing only medium (infected control cells). Several wells received culture medium without virus (uninfected control cells). Likewise, the intrinsic toxicity of the test compound was determined by adding medium without virus to several wells containing test compound. In summary, the tissue culture plates contained the following experiments:
(§2) In experiments 2 and 4 the final concentrations of test compounds were 1, 10, 100 and 500 μg/ml. Either azidothymidine (AZT) or dideoxyinosine (ddI) was included as a positive drug control. […] DMSO was added to all control wells at an appropriate concentration.
(§3) Following the addition of virus, cells were incubated at 37° C. in a humidified, 5% CO2 atmosphere for 7 days. Test compounds could be added on days 0, 2 and 5 if desired. On day 7, post-infection, the cells in each is well were resuspended and a 100 μl sample of each cell suspension was removed for assay. A 20 μL volume of a 5 mg/ml solution of 3-(4,5-dimethylthiazol-2-yl)-2,5-diphenyltetrazolium bromide (MTT) was added to each 100 μL cell suspension, and the cells were incubated for 4 hours at […] in a 5% CO2 environment.
(§4) To each sample was added 100 μl of 10% sodium dodecylsulfate in 0.01 N HCl to lyse the cells, and samples were incubated overnight. The absorbance at 590 nm was determined for each sample using a Molecular Devices microplate reader. Absorbance values for each set of wells is compared to assess viral control infection, uninfected control cell response as well as test compound by cytotoxicity and antiviral efficacy.

CEM cells = assay: Intrinsic toxicity of test compound in uninfected CEM cells (MTT); format: cell-based; conditions: 7 days
Method: as §1, §2, §3, §4

[1] = Table 8, 80 μM substrate, 12.3 nanomolar enzyme, pH 6.4, read-out: IC50
[2] = Human immunodeficiency virus 1, CCRF-CEM, 168 h

Molecule	IC50 (HIV protease; [1]) [nM]	EC50 (HIV-1; [2]) [nM]	also measured
Butanediamide, N^4-[2-hydroxy-3-[(3-methylbutyl)(phenylsulfonyl)amino]-1-(phenylmethyl)propyl]-2,2,3-Trimethyl-, [1S-[1R*(S*),2S*]]- [Table 8 Entry 3]	2	–	IC50 (HIV protease; Table 9, enzyme assay, read-out: IC50): 2 nM; EC50 (HIV-1; Table 9, CEM cells acutely infected with HIV-1, 7 days, read-out: EC50): 5 nM; TD50 (CEM cells; Table 9, CEM cells without virus): 58,000 nm
CC(C)CN(C[C@@H](O)[C@H](Cc1ccccc1)NC(=O)[C@H](C)C(C)(C)C(=O)O)S(=O)(=O)c1ccccc1 [Entry 5]	1	–	–
COc1ccc(S(=O)(=O)N(CC(C)C)C[C@@H](O)[C@H](Cc2ccccc2)NC(=O)[C@H](C)C(C)(C)C(=O)OCc2ccccc2)cc1 [Entry 7]	16	–	–
CC(C)CCN(C[C@@H](O)[C@H](Cc1ccccc1)NC(=O)[C@H](C)C(C)(C)C(=O)O)S(=O)(=O)c1ccccc1 (single isomer, unassigned) [Entry 1]	–	15	–
CC(C)CN(C[C@@H](O)[C@H](Cc1ccccc1)NC(=O)[C@H](C)C(C)(C)C(=O)O)S(=O)(=O)c1ccccc1 [Entry 3]	–	42	IC50 (HIV protease; Table 9, enzyme assay): 1 nM; TD50 (CEM cells; human): 220,000 nm
CC(C)CN(C[C@@H](O)[C@H](Cc1ccccc1)NC(=O)[C@H](C)C(C)(C)C(N)=O)S(=O)(=O)c1ccccc1 [Entry 4]	–	5	TD50 (CEM cells; human): 62,000 nm
COc1ccc(S(=O)(=O)N(CC(C)C)C[C@@H](O)[C@H](Cc2ccccc2)NC(=O)[C@H](C)C(C)(C)C(=O)O)cc1 [Entry 8]	2	–	–
CC(C)CCN(C[C@@H](O)[C@H](Cc1ccccc1)NC(=O)[C@H](C)C(C)(C)C(N)=O)S(=O)(=O)c1ccccc1 (single isomer, unassigned) [Entry 3]	2	–	–
CC(C)CCN(C[C@@H](O)[C@H](Cc1ccccc1)NC(=O)[C@H](C)C(C)(C)C(=O)O)S(=O)(=O)c1ccccc1 (single isomer, unassigned) [Entry 2]	2	–	–
CC(C)CCN(C[C@@H](O)[C@H](Cc1ccccc1)NC(=O)[C@H](C)C(C)(C)C(N)=O)S(=O)(=O)c1ccccc1 (single isomer, unassigned) [Entry 2]	–	9	TD50 (CEM cells; human): 60,000 nm
COc1ccc(S(=O)(=O)N(CC(C)C)C[C@@H](O)[C@H](Cc2ccccc2)NC(=O)[C@H](C)C(C)(C)C(N)=O)cc1 [Entry 9]	2	–	–
COc1ccc(S(=O)(=O)N(CC(C)C)C[C@@H](O)[C@H](Cc2ccccc2)NC(=O)[C@H](C)C(C)(C)C(=O)O)cc1 [Entry 5]	–	27	TD50 (CEM cells; human): 200,000 nm
CC(C)CCN(C[C@@H](O)[C@H](Cc1ccccc1)NC(=O)[C@H](C)C(C)(C)C(=O)OCc1ccccc1)S(=O)(=O)c1ccccc1 (relative stereo) [Entry 1]	80	–	–
CC(C)CN(C[C@@H](O)[C@H](Cc1ccccc1)NC(=O)[C@H](C)C(C)(C)C(=O)OCc1ccccc1)S(=O)(=O)c1ccccc1 [Entry 4]	34	–	–
